Source: paper PMC3556473, “Absorption, metabolism and excretion of [^14C]pomalidomide in humans following oral administration” (Cancer Chemotherapy and Pharmacology, 2012)
“And” between values parts separate entries of the source, which are not always exact repeats. Identical values can stand only once. Like-named read-outs stand apart in the source and are kept apart here.

Tests used:
[1] = Plasma pharmacokinetics of pomalidomide and its enantiomers (chiral LC–MS/MS) after a single oral 2 mg dose of [14C]pomalidomide; assay type: in vivo, human; conditions: for C max: healthy male subjects; for C max / AUC0−t / AUC0−∞ / t ½: mean ± SD (n = 8); for T max: median (min–max)
From the text: This was an open-label, in-patient, single-dose study in eight non-smoking healthy male adult volunteers conducted in accordance with Good Clinical Practices (GCP) and in compliance with the Declaration of Helsinki. The protocol and consent form were reviewed and approved by the appropriate institutional review board, and all study participants gave written informed consent, before initiation of any study-related procedure. Male subjects were eligible based on standard inclusion/exclusion criteria and were excluded if they had exposure to excess radiation or participated in a study involving radioisotopes within the previous 12 months. Subjects entered the study center on the day prior to dosing and remained at the center for up to 15 days following dosing or until the total radioactivity recovered in excreta was ≥90 % or the radioactivity recovered in excreta per day on three consecutive days was ≤1 % of the administered radioactive dose.
Each subject was administered a single oral suspension of 2 mg (100 μCi) of [^14C]pomalidomide in seltzer water (75 mL) followed by administration of an additional 140 mL of distilled water. Subjects were fasted for 8 h prior to and 4 h following dose administration. The residual radioactivity in the dosing vials was determined, and for six of the eight subjects (subjects 1–4, 6 and 8), the administered dose (1.93–2.02 mg) was close to the target dose of 2 mg. For subjects 5 and 7, a significant amount of radioactivity remained in the dose vial, resulting in administered doses of 1.59 and 1.51 mg, respectively. Calculations for percent of dose recovered in excreta were based on the actual administered doses.
Blood was collected into pre-chilled K3EDTA tubes at pre-dose, 0.5, 1, 1.5, 2, 2.5, 3, 4, 6, 8, 10, 12, 24, 48, 72, 120 and 168 h following dose administration. Blood for radioactivity counting was transferred to a clean tube and stored at or below 4 °C until analyzed. Plasma was harvested by centrifugation from the remaining blood. A plasma sample for radioactivity counting was transferred to a fresh tube. Three plasma aliquots were transferred to tubes containing citric acid for metabolite profiling and for determination of pomalidomide enantiomer concentrations in plasma. Urine was collected pre-dose, 0–6, 6-12, 12–24 and every 24 h thereafter up to 216 h (9 days) following dose administration and were stabilized with one volume of pH 1.5 Sorensen’s citrate buffer (25 mM sodium citrate buffer adjusted to pH 1.5). During the 12- to 24-h collection interval for subject 4, approximately 550 mL of urine was inadvertently poured into the wrong collection urinal and the sample was lost. […] Individual fecal samples were collected pre-dose and for up to 9 days following dose administration, and homogenized using approximately three volumes by weight of pH 1.5 Sorensen’s citrate buffer. All urine, fecal homogenates and plasma samples were stored at or below −20 °C until analyzed.
Plasma concentrations of each pomalidomide enantiomer were determined using a chiral LC–MS/MS assay. The pomalidomide enantiomers and ^13C-labeled pomalidomide (internal standard; IS) were extracted from plasma (stabilized with citric acid) using liquid–liquid extraction with methyl tertiary butyl ether. After transfer to a new tube, the solvent was evaporated, and the samples were reconstituted and injected for LC–MS/MS analysis using a Chiral AGP (50 × 3.0 mm, 5 μm; Chrom Tech, Inc., Apple Valley, MN) analytical column. Positive ions were measured in the multiple reaction monitoring (MRM) mode using a Sciex API-4000 tandem mass spectrometer equipped with a Turbo Ion Spray source. For the QC samples, the accuracy ranged from 91.0 to 106.9 %. For study samples, the amount of [^14C]-labeled material was accounted for when calculating the concentration of enantiomers in plasma using an appropriate correction factor. […]

[2] = cited from earlier work
[3] = Plasma pharmacokinetics of pomalidomide and circulating metabolites by radiochromatography (metabolite profiling); assay type: in vivo, human; set-up: AUC0–24 / AUC0−∞: concentration or dose not given beside the values; conditions: for Plasma (% AUC relative to TRA): AUC0–24 (unchanged drug or metabolite)/AUC0–24 (TRA) * 100 %; for AUC/AUCTRA: plasma exposure relative to total radioactivity
Method: Individual plasma samples collected from all subjects at 1, 2.5, 4, 6, 10, 12 and 24 h post-dose were analyzed for metabolite profiling. Samples were extracted with acetonitrile, the supernatant was removed, and the pellet was washed with 0.1 % formic acid in water and extracted again with acetonitrile. The combined supernatants were adjusted to 15 or 25 mL by adding acetonitrile then evaporated to dryness under a stream of nitrogen. The residues were re-suspended in 0.1 % formic acid in water, assayed for extraction recovery and analyzed for metabolite profiling. A control plasma sample spiked with [^14C]pomalidomide was extracted in a similar manner to determine the extraction efficiency and stability of [^14C]pomalidomide.
(§1) HPLC analysis for metabolite profiling (HPLC Method 1) was performed using a Waters 2695 Alliance Separation Module (Waters Corp., Milford, MA) with the autosampler set to 4 °C. [^14C]Pomalidomide and metabolites were separated using an ACE C18 column (150 × 4.6 mm, 3 μm; Advanced Chromatography Technologies, Aberdeen, Scotland) equipped with an ACE C18 guard column (10 × 3 mm, 3 μm). The mobile phases used were 25 mM ammonium acetate in water: pH 5.5 with formic acid (mobile phase A) and methanol (mobile phase B). The column temperature was 30 °C, and the flow rate was 0.7 mL/min. The linear gradient was delivered as follows: 0–2 min 100 % A; 2–38 min to 64 % A; 38–44 min to 0 % A; 44–48 min hold at 0 % A; return to initial conditions over 2 min.
(§2) Radioactivity profiles for plasma and excreta were determined by collecting the column eluate into 96-well Deepwell LumaPlates™ at a rate of 0.25 min/fraction. The plates were dried and the radioactivity in each well determined using a PerkinElmer TopCount® NXT™ Microplate Scintillation Counter. HPLC radiochromatograms were reconstructed using LC-ARC data handling software.
For pomalidomide and metabolite concentrations in plasma based on metabolite profiling data, pharmacokinetic data were generated by non-compartmental analysis of plasma versus time profiles using WinNonlin (version 4.1, Enterprise Edition).

[4] = Metabolite profiling of urine and feces (% of dose excreted); assay type: in vivo, human; conditions: radiochromatography; for % of dose excreted, Urine: pooled urine 0–72 h
Method: For each subject, urine samples were pooled using an equal percentage by volume of the 0–6, 6–12, 12–24, 24–48 and 48–72 h samples. Pools of the 0–6, 6–12, 12–24, 24–48 and 48-72 h collections were also prepared across subjects and analyzed for metabolite profiling. Samples were mixed and centrifuged prior to the supernatants being transferred to fresh tubes for metabolite profiling analysis.
For each subject, fecal homogenates for metabolite profiling were pooled using an equal percentage by weight of the 0–24, 24–48, 48–72 and 72–96 h samples. Pools of the 0–24, 24-48, 48–72 and 72–96 h collections were also prepared across subjects and analyzed for metabolite profiling. An aliquot of each pool was extracted with acetonitrile; samples were mixed and centrifuged. The supernatant was removed and the pellets re-suspended with 0.1 % formic acid and extracted with acetonitrile. The combined supernatants were evaporated to dryness under a stream of nitrogen and the residue re-suspended in methanol:0.1 % formic acid in water (1:1). Samples were assayed for extraction recovery prior to metabolite profiling. A control fecal homogenate spiked with [^14C]pomalidomide was extracted in a similar manner to determine the extraction efficiency and stability of [^14C]pomalidomide.
as §1, §2

H929 MM cell = assay: Inhibition of MM cell proliferation ([3H]-thymidine incorporation, 3-day culture); assay type: cell-based; conditions: Homo sapiens, NCI-H929
Method: (§3) Metabolites and hydrolysis products of pomalidomide were tested for pharmacological activity in the following three assay systems: (1) inhibition of MM cell proliferation, (2) enhancement of primary human T cell IL-2 production and (3) inhibition of TNF-α production by lipopolysaccharide (LPS)-stimulated human peripheral blood mononuclear cells (PBMC). For all three assay types, compounds were dissolved in 100 % dimethyl sulfoxide (DMSO) and diluted into complete cell culture medium, consisting of Roswell Park Memorial Institute (RPMI)-1640 plus penicillin, streptomycin and L-glutamine (Mediatech, Manassas, VA). The MM cell proliferation cell culture medium contained 10 % fetal bovine serum, while the primary human cell cultures contained 10 % human AB serum (Invitrogen, Brown Deer, WI). The final DMSO concentration in the cell culture media was 0.25 %.
(§4) The human MM cell line OPM-2 was obtained from DSMZ (Braunschweig, Germany), and human MM cell lines U266 B1 and NCI-H929 were obtained from ATCC (Manassas, VA). Inhibition of MM cell proliferation was assessed by the [^3H]-thymidine incorporation assay in a 3-day culture in the presence of compounds in complete medium, as previously described. Primary human T cells were isolated from PBMC by negative selection using the RosetteSep T Cell Enrichment Cocktail (STEMCELL Technologies, Tukwila, WA) according to the manufacturer’s procedures. Costimulation of T cell IL-2 production was measured in a 2-day culture of primary human T cells isolated from healthy donors stimulated with anti-CD3 antibody in the presence of compounds, as previously described. Inhibition of TNF-α production by LPS-stimulated human PBMC was measured in a 1-day culture in the presence of compound, as previously described.

OPM-2 MM cell = assay: as above; assay type: cell-based; conditions: Homo sapiens
Method: as §3, §4

U266 MM cell = assay: as above; assay type: cell-based; conditions: Homo sapiens, U-266
Method: as §3, §4

T cell IL-2 production = assay: Enhancement of primary human T cell IL-2 production (anti-CD3 stimulated, 2-day culture); assay type: cell-based; conditions: 48 h, anti-CD3 stimulated primary human T cells
Method: as §3, §4

PBMC TNF-α production = assay: Inhibition of TNF-α production by LPS-stimulated human PBMC (1-day culture); assay type: cell-based; conditions: 24 h
Method: as §3, §4

[5] = lenalidomide, listed as lenalidomide
[6] = plasma, radiochromatography, geometric mean (%CV)
[7] = plasma, radiochromatography, median and range

Nc1cccc2c1C(=O)N([C@@H]1CCC(=O)NC1=O)C2=O (single isomer, unassigned) [R-enantiomer]
C max [1]: 6.36 ± 2.08 ng/mL | AUC0−t [1]: 67.7 ± 33.8 ng·h/mL | AUC0−∞ [1]: 95.1 ± 46.1 ng·h/mL | t ½ [1]: 9.5 ± 3.2 h | T max [1]: 3.0 (2.5–6.0) h

Nc1cccc2c1C(=O)N([C@H]1CCC(=O)NC1=O)C2=O (single isomer, unassigned) [S-enantiomer]
C max [1]: 6.78 ± 1.99 ng/mL | AUC0−t [1]: 66.9 ± 34.1 ng·h/mL | AUC0−∞ [1]: 96.4 ± 58.2 ng·h/mL | t ½ [1]: 8.8 ± 4.5 h | T max [1]: 3.0 (1.0–6.0) h

Nc1cccc2c1CN(C1CCC(=O)NC1=O)C2=O (stereo not drawn) [Lenalidomide, lenalidomide]
Percent dose excreted in human urine, Metabolites (oxidative and conjugative) ([2]; lenalidomide): 5.3% | Percent dose excreted in human urine, Parent ([2]; lenalidomide): 81.7% | Percent dose excreted in human urine, Total ([2]; lenalidomide): 90.3% | Percent dose excreted in human urine, Parent [2, 5]: > 80% | Percent dose excreted in human urine, Total [2, 5]: > 90%

Nc1cccc(C(=O)O)c1C(=O)O [Metabolite M2, 3-Aminophthalic acid]
Plasma (% AUC relative to TRA) [3]: 1.7% | Tmax ([3]; human, oral, 2 mg, plasma, radiochromatography, median and range): 6 h | half-life ([3]; male, human, plasma, oral, 2 mg, plasma, radiochromatography, geometric mean (%CV), read-out: t ½ (converted)): 13.2 h | AUC/AUCTRA [3]: 1.71% | AUC0–24 [3, 6]: 3.31 (28.4) ngEq*h/mL | AUC0−∞ [3, 6]: 4.27 (12.7) ngEq*h/mL | C max [3, 6]: 0.238 (36.3) ngEq/mL | % of dose excreted, Urine [4]: 1.4%

NC(=O)C(CCC(=O)O)N1C(=O)c2cccc(N)c2C1=O (stereo not drawn) [Metabolite M10]
% of dose excreted, Feces ([4]; pooled feces 0–96 h): 0.3% | % of dose excreted, Urine [4]: 1.5% | IC50 (H929 MM cell): > 1000 nM | IC50 (OPM-2 MM cell): > 1000 nM | IC50 (U266 MM cell): > 1000 nM | EC50 (T cell IL-2 production): 720 nM | IC50 (PBMC TNF-α production): > 10000 nM

Nc1c(O[C@@H]2O[C@H](C(=O)O)[C@@H](O)[C@H](O)[C@H]2O)ccc2c1C(=O)N(C1CCC(=O)NC1=O)C2=O (stereo partly drawn) [Metabolite M12]
Plasma (% AUC relative to TRA) [3]: 4.6% | AUC/AUCTRA [3]: 4.59% | AUC0–24 [3, 6]: 8.90 (20.9) ngEq*h/mL | AUC0−∞ [3, 6]: 10.1 (30.2) ngEq*h/mL | C max [3, 6]: 0.664 (23.5) ngEq/mL | t ½ [3, 6]: 9.06 (18.7) h | T max [3, 7]: 2.5 (1.0–6.0) h | % of dose excreted, Urine [4]: 17% and 17.1%

Nc1c(O[C@@H]2O[C@H](C(=O)O)[C@@H](O)[C@H](O)[C@H]2O)ccc2c1C(=O)N(C1CCC(=O)NC1=O)C2=O (stereo partly drawn) [Metabolite M13]
Plasma (% AUC relative to TRA) [3]: 2.0% | AUC/AUCTRA [3]: 1.99% | AUC0–24 [3, 6]: 3.86 (54.0) ngEq*h/mL | AUC0−∞ [3, 6]: 5.99 (48.9) ngEq*h/mL | C max [3, 6]: 0.362 (31.7) ngEq/mL | t ½ [3, 6]: 9.97 (43.6) h | T max [3, 7]: 3.25 (1.0–6.0) h | % of dose excreted, Urine [4]: 12% and 12.4%

O=C1CCC(N2C(=O)c3ccccc3C2=O)C(=O)N1 (stereo not drawn) [Thalidomide, thalidomide]
Percent dose excreted in human urine, Hydrolysis products ([2]; thalidomide): 87.2% | Percent dose excreted in human urine, Metabolites (oxidative and conjugative) ([2]; thalidomide): Trace | Percent dose excreted in human urine, Parent ([2]; thalidomide): 1.8% | Percent dose excreted in human urine, Total ([2]; thalidomide): 91.9% | Percent dose excreted in human urine, Total ([2]; thalidomide, listed as thalidomide): > 90%
